According to patent publication US10485235B2, “Aryloxypyrimidinyl ethers as herbicides” (FMC Corporation, priority 2015, dated 2019):

Tests used:
Type in all cases: in vivo
rice (Oryza sativa) = assay: Test B flooded paddy test, rice; details: 250 g ai/ha, Flood; visual rating after 13 to 15 days; scale 0 to 100, 0 is no effect, 100 is complete control
Method in brief: (§1)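 2-leaf plants; flood to 3 cm, dose into water, hold depth; greenhouse 13–15 d; visual score 0–100 vs controls; dash = not tested.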

[1] = system: ryegrass, Italian (Italian ryegrass, Lolium multiflorum); assay: Test A preemergence, Italian ryegrass; details: Preemergence, 0 to 100 scale (0 no effect, 100 complete control)
Method in brief: (§2)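 Test chemicals in a solvent/surfactant mixture were applied as a preemergence directed soil spray on seeded loam–sand, or postemergence to plants 2–10 cm tall at the one- to two-leaf stage. After roughly 10 days in a greenhouse, injury was visually rated versus untreated controls on a 0 (no effect) to 100 (complete control) scale.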

kochia (Kochia scoparia) [2] = assay: Test A preemergence, kochia; details: Preemergence, 0 to 100 scale (0 no effect, 100 complete control)
Method in brief: as §2

[3] = system: ryegrass, Italian (Italian ryegrass, Lolium multiflorum); assay: Test A postemergence, Italian ryegrass
Method in brief: as §2

[4] = system: sedge, umbrella (small-flower umbrella sedge, Cyperus difformis); assay: Test B flooded paddy test, umbrella sedge; details: 250 g ai/ha, Flood; visual rating after 13 to 15 days; scale 0 to 100, 0 is no effect, 100 is complete control
Method in brief: as §1

corn (Zea mays) = assay: Test A postemergence, corn
Method in brief: as §2

[5] = system: barnyardgrass (Echinochloa crus-galli); assay: Test B flooded paddy test, barnyardgrass; details: 250 g ai/ha, Flood; visual rating after 13 to 15 days; scale 0 to 100, 0 is no effect, 100 is complete control
Method in brief: as §1

[6] = system: barnyardgrass (Echinochloa crus-galli); assay: Test A preemergence, barnyardgrass; details: Preemergence, 0 to 100 scale (0 no effect, 100 complete control)
Method in brief: as §2

[7] = system: ragweed (common ragweed, Ambrosia elatior); assay: Test A postemergence, ragweed
Method in brief: as §2

kochia (Kochia scoparia) [8] = assay: Test A postemergence, kochia
Method in brief: as §2

[9] = system: foxtail, giant (giant foxtail, Setaria faberii); assay: Test A postemergence, giant foxtail
Method in brief: as §2

[10] = system: ragweed (common ragweed, Ambrosia elatior); assay: Test A preemergence, ragweed; details: Preemergence, 0 to 100 scale (0 no effect, 100 complete control)
Method in brief: as §2

[11] = system: barnyardgrass (Echinochloa crus-galli); assay: Test A postemergence, barnyardgrass
Method in brief: as §2

[12] = system: blackgrass (Alopecurus myosuroides); assay: Test A postemergence, blackgrass
Method in brief: as §2

[13] = system: wheat (Triticum aestivum); assay: Test A postemergence, wheat
Method in brief: as §2

[14] = system: foxtail, giant (giant foxtail, Setaria faberii); assay: Test A preemergence, giant foxtail; details: Preemergence, 0 to 100 scale (0 no effect, 100 complete control)
Method in brief: as §2

[15] = system: pigweed (Amaranthus retroflexus); assay: Test A preemergence, pigweed; details: Preemergence, 0 to 100 scale (0 no effect, 100 complete control)
Method in brief: as §2

[16] = system: galium (catchweed bedstraw, Galium aparine); assay: Test A postemergence, galium
Method in brief: as §2

[17] = system: pigweed (Amaranthus retroflexus); assay: Test A postemergence, pigweed
Method in brief: as §2

[18] = system: ducksalad (Heteranthera limosa); assay: Test B flooded paddy test, ducksalad; details: 250 g ai/ha, Flood; visual rating after 13 to 15 days; scale 0 to 100, 0 is no effect, 100 is complete control
Method in brief: as §1

[19] = 31 g ai/ha, postemergence, 0 to 100 scale, 0 is no effect, 100 is complete control, approximately 10 days
[20] = 125 g ai/ha, postemergence, 0 to 100 scale, 0 is no effect, 100 is complete control, approximately 10 days
[21] = Postemergence, 31 g ai/ha, 0 to 100 scale (0 no effect, 100 complete control)

FC(F)(F)CCCOc1c(Oc2ncc(Cl)cn2)cccc1C(F)(F)F [Compound 54]
50: Plant response rating, Kochia (kochia (Kochia scoparia) [8]; [20]) | Plant response rating, Foxtail, Giant ([14]; 31 g ai/ha) | Plant response rating, Galium [16, 20]
20: Plant response rating, Ryegrass, Italian [3, 20] | Plant response rating, Corn (corn (Zea mays); [20]) | Plant response rating, Barnyardgrass ([6]; 31 g ai/ha) | Plant response rating, Barnyardgrass [11, 20] | Plant response rating, Pigweed ([15]; 31 g ai/ha) | Plant response rating, Galium [16, 19] | Plant response rating, Pigweed [17, 19]
90: Plant response rating, Barnyardgrass ([6]; 125 g ai/ha)
30: Plant response rating, Kochia (kochia (Kochia scoparia) [2]; 125 g ai/ha)
0: Plant response rating, Kochia (kochia (Kochia scoparia) [2]; 31 g ai/ha) | Plant response rating, Ryegrass, Italian [3, 19] | Plant response rating, Ragweed [7, 19] | Plant response rating, Ragweed ([10]; 31 g ai/ha) | Plant response rating, Ragweed ([10]; 125 g ai/ha) | Plant response rating, Blackgrass [12, 19] | Plant response rating, Wheat [13, 19]
80: Plant response rating, Ryegrass, Italian ([1]; 125 g ai/ha) | Plant response rating, Pigweed [17, 20]
40: Plant response rating, Rice (rice (Oryza sativa)) | Plant response rating, Barnyardgrass [5]
10: Plant response rating, Ryegrass, Italian ([1]; 31 g ai/ha) | Plant response rating, Corn (corn (Zea mays); [19]) | Plant response rating, Ragweed [7, 20] | Plant response rating, Kochia (kochia (Kochia scoparia) [8]; [19]) | Plant response rating, Foxtail, Giant [9, 19] | Plant response rating, Barnyardgrass [11, 19] | Plant response rating, Blackgrass [12, 20] | Plant response rating, Wheat [13, 20]
70: Plant response rating, Foxtail, Giant [9, 20]
100: Plant response rating, Sedge, Umbrella [4] | Plant response rating, Foxtail, Giant ([14]; 125 g ai/ha) | Plant response rating, Pigweed ([15]; 125 g ai/ha) | Plant response rating, Ducksalad [18]

N#Cc1cccc(Oc2ncc(Cl)cn2)c1OCCCC(F)(F)F [Compound 72]
100: Plant response rating, Ducksalad [18]
20: Plant response rating, Ryegrass, Italian ([1]; 125 g ai/ha) | Plant response rating, Corn (corn (Zea mays); [20]) | Plant response rating, Blackgrass [12, 20] | Plant response rating, Galium [16, 21]
90: Plant response rating, Sedge, Umbrella [4] | Plant response rating, Foxtail, Giant ([14]; 125 g ai/ha)
40: Plant response rating, Foxtail, Giant [9, 20]
70: Plant response rating, Kochia (kochia (Kochia scoparia) [8]; [20])
25: Plant response rating, Barnyardgrass [5]
60: Plant response rating, Pigweed ([15]; 125 g ai/ha) | Plant response rating, Galium [16, 20] | Plant response rating, Pigweed [17, 20]
0: Plant response rating, Rice (rice (Oryza sativa)) | Plant response rating, Ryegrass, Italian ([1]; 31 g ai/ha) | Plant response rating, Kochia (kochia (Kochia scoparia) [2]; 31 g ai/ha) | Plant response rating, Ryegrass, Italian [3, 21] | Plant response rating, Ragweed [7, 21] | Plant response rating, Ragweed ([10]; 31 g ai/ha) | Plant response rating, Ragweed ([10]; 125 g ai/ha) | Plant response rating, Blackgrass [12, 21] | Plant response rating, Wheat [13, 20] | Plant response rating, Wheat [13, 21] | Plant response rating, Pigweed ([15]; 31 g ai/ha)
30: Plant response rating, Kochia (kochia (Kochia scoparia) [8]; [21]) | Plant response rating, Barnyardgrass [11, 20] | Plant response rating, Pigweed [17, 21]
80: Plant response rating, Barnyardgrass ([6]; 125 g ai/ha)
10: Plant response rating, Kochia (kochia (Kochia scoparia) [2]; 125 g ai/ha) | Plant response rating, Ryegrass, Italian [3, 20] | Plant response rating, Corn (corn (Zea mays); [21]) | Plant response rating, Barnyardgrass ([6]; 31 g ai/ha) | Plant response rating, Ragweed [7, 20] | Plant response rating, Foxtail, Giant [9, 21] | Plant response rating, Barnyardgrass [11, 21] | Plant response rating, Foxtail, Giant ([14]; 31 g ai/ha)
